Values of other authors as cited in patent US10392474B2, “Anionic linear polyglycerol derivatives, a method for manufacturing and applications” (FREIE UNIVERSITAET BERLIN, priority 2015, dated 2019).

Conditions: after subcutaneous administration

half-life: 17 h
SMILES: CO[C@H]1O[C@H](COS(=O)(=O)O)[C@@H](O[C@@H]2O[C@@H](C(=O)O)[C@@H](O[C@H]3O[C@H](COS(=O)(=O)O)[C@@H](O[C@@H]4O[C@H](C(=O)O)[C@@H](O[C@H]5O[C@H](COS(=O)(=O)O)[C@@H](O)[C@H](O)[C@H]5NS(=O)(=O)O)[C@H](O)[C@H]4O)[C@H](OS(=O)(=O)O)[C@H]3NS(=O)(=O)O)[C@H](O)[C@H]2OS(=O)(=O)O)[C@H](O)[C@H]1NS(=O)(=O)O [fondaparinux]
